{"source": "paper PMC13013135", "about": "“[^99mTc]Tc-PSMA-HSG for PSMA-targeted Hybrid Surgical Guidance: a new addition to the PSMA-I&S/I&T family” (European Journal of Nuclear Medicine and Molecular Imaging, 2025)", "key": {"[1]": {"system": "PSMA expressing LNCaP cells", "parameters": "method as in PMID 27635024, PMID 30237214", "settings": "60 min, 37 °C, normalized to ([^125I]IBA)KuE; cited from earlier work"}, "PSMA": {"target": "PSMA (Homo sapiens, UniProt Q04609)", "sequence (Q04609 whole entry)": "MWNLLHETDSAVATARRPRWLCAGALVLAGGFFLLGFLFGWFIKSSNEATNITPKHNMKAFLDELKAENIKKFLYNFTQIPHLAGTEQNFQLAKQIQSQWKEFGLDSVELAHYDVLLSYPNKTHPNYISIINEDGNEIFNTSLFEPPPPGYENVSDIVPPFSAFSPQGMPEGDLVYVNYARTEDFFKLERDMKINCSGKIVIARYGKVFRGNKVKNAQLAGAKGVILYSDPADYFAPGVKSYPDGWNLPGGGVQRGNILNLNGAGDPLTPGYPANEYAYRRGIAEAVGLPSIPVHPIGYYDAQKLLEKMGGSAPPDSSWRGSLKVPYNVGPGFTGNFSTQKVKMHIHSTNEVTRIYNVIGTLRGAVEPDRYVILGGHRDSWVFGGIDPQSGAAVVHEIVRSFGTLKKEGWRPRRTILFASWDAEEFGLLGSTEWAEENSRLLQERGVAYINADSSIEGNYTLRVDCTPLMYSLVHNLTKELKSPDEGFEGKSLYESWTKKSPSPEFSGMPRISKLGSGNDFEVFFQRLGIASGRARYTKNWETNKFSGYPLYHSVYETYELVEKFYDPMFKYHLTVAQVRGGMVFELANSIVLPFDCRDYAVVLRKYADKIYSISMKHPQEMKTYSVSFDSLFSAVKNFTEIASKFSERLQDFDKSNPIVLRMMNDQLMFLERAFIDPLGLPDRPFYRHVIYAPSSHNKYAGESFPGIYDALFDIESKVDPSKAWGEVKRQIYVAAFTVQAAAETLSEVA", "parameters": "Five patients with a diagnosis of initial (n = 4) or biochemical recurrence of (n = 1) histologically proven prostate cancer; from tissue; host or cells: prostate cancer patients: primary tumour, lymph nodes, resected tissue sections; method as in PMID 27635024, PMID 30237214", "settings": "LNCaP cells, identical experimental conditions; cited from earlier work"}, "[2]": {"system": "PC3-Pip xenografts in NSG mice", "assay": "Fluorescence imaging in mice with clinical-grade fluorescence endoscope", "format": "in vivo, mouse", "method": "Fluorescence imaging of PC3-Pip xenografts in NSG mice (2 h p.i. at a PSMA-HSG dose of 1 nmol and 6 h p.i. at a ligand dose of 0.1 nmol, respectively; n = 1 per compound and condition) was performed using a clinical-grade fluorescence laparoscopy set-up (KARL STORZ Endoskope GMBh & Co. KG). Cy5-based tumor imaging was performed using D-light P system and a prototype modified IMAGE 1 S light source with integrated Cy5 filter (both KARL STORZ Endoskope GMBh & Co. KG). Images were recorded using integrated KARL STORZ software and image processing was performed using custom MATLAB software that provided a signal intensity-based representation of the signal-to-background ratio (SBR; [45, 46]).\nPC-3 PIP xenografts were established by subcutaneous injection of 5 × 10^6 PC3-PIP cells/mouse using 8–12-week-old male NSG mice (in-house breeding, Dpt. of Oncology, University of Lausanne) as previously described. Tumors reached a size of 4-8 mm in diameter after 5-6 days and were then immediately used for the fluorescence imaging studies."}, "PC3-Pip tumor slices": {"system": "PC3-Pip tumor slices", "assay": "Confocal fluorescence imaging of excised tumor specimens", "format": "in vivo, mouse", "method": "After in vivo imaging, the tumors (n = 1 per condition) were excised and cut into 2 mm slices. Prior to imaging, slices were placed on a 35-mm culture dish containing a glass insert (MatTek Co.). Fluorescence confocal imaging was then performed using a Leica SP8 WLL microscope (Leica Microsystems). For assessment of tracer uptake Cy5 settings were used; λex = 633 nm, λem = 650–700 nm. Images were processed using accompanying LASX software (Leica Application Software Suite 4.8)."}, "LNCaP cells": {"system": "LNCaP cells", "assay": "Fluorescence microscopy of ligand internalization", "format": "cell-based, human", "settings": "100 nM", "method": "Competitive binding experiments (IC50) were carried out in accordance with an established protocol using PSMA-expressing LNCaP cells and ([^125I]I-BA)KuE as standard radioligand. Internalization kinetics of [^99mTc]Tc-PSMA-HSG (0.5 nM) were investigated in a dual tracer internalization assay using PSMA expressing LNCaP cells and ([^125I]I-BA)KuE (0.1 nM) as an internal reference. Non-specific binding/internalization was determined in the presence of 10 µM 2-PMPA. Furthermore, PSMA-HSG internalization into LNCaP cells was investigated using fluorescence microscopy (100 nM PSMA-HSG). Please see the Supplementary Material for experimental details.\nTwo days prior to the experiment, LNCaP cells (approximately 100.000 cells/well) were seeded on round glass coverslips placed in the bottoms of the wells of 24-well plates. After cell adhesion and expansion, the culture medium was removed by aspiration, and the cells were washed with HBSS (1% BSA). […]\nFluorescence images were acquired on a Zeiss Axio Observer Z1 inverted microscope using a Plan Apochromat 20x, N.A. 0.8, air, DIC objective or a Plan Apochromat 63x, N.A. 1.4, oil, DIC objective. […] Fluorescence illumination was provided by an X-Cite fluorescence lamp. […]"}, "[3]": {"assay": "Photophysical characterization", "format": "physicochemical", "settings": "in a 5% human serum albumin solution", "method": "The determination of the quantum yield and molar extinction coefficient of PSMA-HSG were performed according to previously published procedures.\nOf the free dye HOOC-(SO3)Cy5(SO3)-Methyl (Sulfo-Cy5), a 100 µM stock solution in PBS was prepared. From this, a dilution series comprising the following concentrations was prepared: 7.5 µM, 5 µM, 2.5 µM, 1 µM, 0.75 µM, 0.5 µM, 0.25 µM. Of these solutions, absorption spectra (n=3 per concentration) were recorded using a Shimadzu UV-1280 spectrometer (Shimadzu, Kyoto, Japan). The concentrations were plotted against the mean of the maximum absorbance per concentration. A trendline was fitted, with the regression coefficient x 10^6 representing the molar extinction coefficient (R^2 ≥ 0.9900) in M^-1.L^-1.cm^-1.\nThe brightness in (M^-1.L^-1.cm^-1) was calculated using the following formula:\nBrightness =Quantum yield hybrid label*Molar extinction coefficient free dye"}}}
{"molecule": "O=C(O)CC[C@H](NC(=O)NC(CCCCNC(=O)c1ccc([125I])cc1)C(=O)O)C(=O)O", "note": "(stereo partly drawn) [([^125I]IBA)KuE]", "values": [{"measurement": "internalization [% of reference]", "setting": "[1]", "value": "100 % of reference"}]}
{"molecule": "PSMA-I&S: non-fluorescent parent compound, unlabeled", "values": [{"measurement": "IC50", "setting": "PSMA", "value": "39.7 ± 1.2", "unit": "nM"}]}
{"molecule": "CC(=O)SCC(=O)N[C@H](CO)C(=O)N[C@H](CO)C(=O)N[C@H](CO)C(=O)N[C@H](CCCCNC(=O)CCCCCN1/C(=C/C=C/C=C/C2=[N+](C)c3ccc(S(=O)(=O)[O-])cc3C2(C)C)C(C)(C)c2cc(S(=O)(=O)O)ccc21)C(=O)N[C@H](Cc1ccc(O)cc1)C(=O)N[C@H](Cc1ccc2ccccc2c1)C(=O)N[C@H](CCCCNC(=O)CCCCCCC(=O)NCCCC[C@H](NC(=O)N[C@@H](CCC(=O)O)C(=O)O)C(=O)O)C(=O)O", "note": "[PSMA-HSG]", "values": [{"measurement": "in vivo tumor fluorescence, Cy5 fluorescence endoscope", "setting": "[2]; 0.1 nmol, 6 h p.i.", "value": "only a weak fluorescence signal"}, {"measurement": "in vivo tumor fluorescence, Cy5 fluorescence endoscope", "setting": "[2]; 1 nmol, 2 h p.i.", "value": "high relative PSMA-HSG fluorescence intensity"}, {"measurement": "confocal fluorescence microscopy of tumor slices", "setting": "PC3-Pip tumor slices; 2 h p.i./1 nmol", "value": "strong and homogenous PSMA-HSG fluorescence"}, {"measurement": "confocal fluorescence microscopy of tumor slices", "setting": "PC3-Pip tumor slices; 6 h p.i./0.1 nmol (low dose/late timepoint)", "value": "detectable, but weak fluorescence signal"}, {"measurement": "membrane binding, fluorescence microscopy", "setting": "LNCaP cells; 30 min, 4 °C", "value": "intense and PSMA-specific membrane staining"}, {"measurement": "internalization, fluorescence microscopy", "setting": "LNCaP cells; 60 min, 37 °C", "value": "efficient ligand translocation into the cells"}, {"measurement": "quantum yield", "setting": "[3]", "value": 26, "unit": "%"}]}
